Columns and labels:
[1] = tested on: MCF7 (breast cancer) cells; assay: MTT cytotoxicity assay in MCF7 breast cancer cells; assay type: cell-based; conditions: 65 hours incubation, read-out: IC50, viability of MCF7 cells from the MTT assay
Description: The cyctoxicity of compounds was determined in MCF 7 (breast cancer) cells.
MCF7 cells were grown in RPMI 1640 media with 10 nM estrogen and 1 mM insulin. Cells were tyripsinized and resuspended at a density of 2.2×10^4 cells per mL. 500 μL of this suspension was added to each well in a 24 well plate. The plates were incubated at 37° C. and 5% CO2 atmosphere overnight. The media was changed, and plates were dosed in triplicate with compound dissolved in DMSO. Cells were dosed not to exceed 0.5% DMSO in solution. Cells were dosed to a final concentration of 100, 50, 25, 12.5, and 6.25 μM of compound. 5-Flurouracil was used as a positive control and dosed in the same manner. Plates were incubated for 65 hours prior to the addition of MTT solution. 500 μL of a 193 μg/mL MTT and media solution was added to each well. Plates were incubated for 3 hours. The MTT solution was removed and 500 μL of DMSO was added to each well. Cells were imaged using GS 800 Bio Rad scanner and Quality One Software. IC50 curves were determined by plotting viability verses compound concentration. Kaleidagraph software was used to calculate the R value for each logarithmic curve fitting.

Breast MSF7 = assay: NCI in vitro cell line screen (SRB), single dose; assay type: cell-based, human; conditions: Breast MSF7, single dose of 10 μM
Description: (§1) Four of the preliminary lead compounds: three nucleosides (JT-1-10, VAL-1-15/42, VAL-1-16) and one nucleobase (KB-1-17)—were submitted to the National Cancer Institute for the in vitro cell line screening project (IVCLSP). The screening consisted in the evaluation of this compound against the 60 cell lines at a single dose of 10 μM.
(§2) The human tumor cell lines of the cancer screening panel are grown in RPMI 1640 medium containing 5% fetal bovine serum and 2 mM L-glutamine. For a typical screening experiment, cells are inoculated into 96 well microtiter plates in 100 μL at plating densities ranging from 5,000 to 40,000 cells/well depending on the doubling time of individual cell lines. After cell inoculation, the microtiter plates are incubated at 37° C., 5% CO2, 95% air and 100% relative humidity for 24 h prior to addition of experimental drugs.
(§3) After 24 h, two plates of each cell line are fixed in situ with TCA, to represent a measurement of the cell population for each cell line at the time of drug addition (Tz). Experimental drugs are solubilized in dimethyl sulfoxide at 400-fold the desired final maximum test concentration and stored frozen prior to use. At the time of drug addition, an aliquot of frozen concentrate is thawed and diluted to twice the desired final maximum test concentration with complete medium containing 50 μg/ml gentamicin. Additional four, 10-fold or ½ log serial dilutions are made to provide a total of five drug concentrations plus control. Aliquots of 100 μl of these different drug dilutions are added to the appropriate microtiter wells already containing 100 μl of medium, resulting in the required final drug concentrations.
(§4) Following drug addition, the plates are incubated for an additional 48 h at 37° C., 5% CO2, 95% air, and 100% relative humidity. For adherent cells, the assay is terminated by the addition of cold TCA. Cells are fixed in situ by the gentle addition of 50 μl of cold 50% (w/v) TCA (final concentration, 10% TCA) and incubated for 60 minutes at 4° C. The supernatant is discarded, and the plates are washed five times with tap water and air dried. Sulforhodamine B (SRB) solution (100 μl) at 0.4% (w/v) in 1% acetic acid is added to each well, and plates are incubated for 10 minutes at room temperature. After staining, unbound dye is removed by washing five times with 1% acetic acid and the plates are air dried. Bound stain is subsequently solubilized with 10 mM trizma base, and the absorbance is read on an automated plate reader at a wavelength of 515 nm. For suspension cells, the methodology is the same except that the assay is terminated by fixing settled cells at the bottom of the wells by gently adding 50 μl of 80% TCA (final concentration, 16% TCA). Using the seven absorbance measurements [time zero, (Tz), control growth, (C), and test growth in the presence of drug at the five concentration levels (Ti)], the percentage growth is calculated at each of the drug concentrations levels. Percentage growth inhibition is calculated as:
(§5) [(Ti−Tz)/(C−Tz)]×100 for concentrations for which Ti>/=Tz
(§6) [(Ti−Tz)/Tz]×100 for concentrations for which Ti<Tz.
(§7) Three dose response parameters are calculated for each experimental agent. Growth inhibition of 50% (GI50) is calculated from [(Ti−Tz)/(C−Tz)]×100=50, which is the drug concentration resulting in a 50% reduction in the net protein increase (as measured by SRB staining) in control cells during the drug incubation. The drug concentration resulting in total growth inhibition (TGI) is calculated from Ti=Tz. The LC50 (concentration of drug resulting in a 50% reduction in the measured protein at the end of the drug treatment as compared to that at the beginning) indicating a net loss of cells following treatment is calculated from [(Ti−Tz)/Tz]×100=−50. […]

CNS SNB-75 = assay: NCI in vitro cell line screen (SRB), single dose; assay type: cell-based, human; conditions: CNS SNB-75, single dose of 10 μM
Description: as §1, §2, §3, §4, §5, §6, §7

Leukemia RPMI-8226 = assay: NCI in vitro cell line screen (SRB), single dose; assay type: cell-based, human; conditions: Leukemia RPMI-8226, single dose of 10 μM
Description: as §1, §2, §3, §4, §5, §6, §7

[2] = tested on: Non-Small Cell Lung HOP-92; assay: NCI in vitro cell line screen (SRB), single dose; assay type: cell-based, human; conditions: Non-Small Cell Lung HOP-92, single dose of 10 μM
Description: as §1, §2, §3, §4, §5, §6, §7

[3] = tested on: Non-Small Cell Lung NCI-H522; assay: NCI in vitro cell line screen (SRB), single dose; assay type: cell-based, human; conditions: Non-Small Cell Lung NCI-H522, single dose of 10 μM
Description: as §1, §2, §3, §4, §5, §6, §7

Renal TK-10 = assay: NCI in vitro cell line screen (SRB), single dose; assay type: cell-based, human; conditions: Renal TK-10, single dose of 10 μM
Description: as §1, §2, §3, §4, §5, §6, §7

Renal UO-31 = assay: NCI in vitro cell line screen (SRB), single dose; assay type: cell-based, human; conditions: Renal UO-31, single dose of 10 μM
Description: as §1, §2, §3, §4, §5, §6, §7

Prostate PC-3 = assay: NCI in vitro cell line screen (SRB), single dose; assay type: cell-based, human; conditions: Prostate PC-3, single dose of 10 μM
Description: as §1, §2, §3, §4, §5, §6, §7

Renal CAKI-1 = assay: NCI in vitro cell line screen (SRB), single dose; assay type: cell-based, human; conditions: Renal CAKI-1, single dose of 10 μM
Description: as §1, §2, §3, §4, §5, §6, §7

Melanoma UACC-62 = assay: NCI in vitro cell line screen (SRB), single dose; assay type: cell-based, human; conditions: Melanoma UACC-62, single dose of 10 μM
Description: as §1, §2, §3, §4, §5, §6, §7

Renal A498 = assay: NCI in vitro cell line screen (SRB), single dose; assay type: cell-based, human; conditions: Renal A498, single dose of 10 μM
Description: as §1, §2, §3, §4, §5, §6, §7

Compound: CC(C)(C)C(OCc1cn([C@H]2C[C@H](O)[C@@H](CO)O2)c(=O)[nH]c1=O)c1ccccc1 (stereo partly shown) [JT-1-10, 5-[1-(phenyl)-2,2-(dimethyl)-1-propoxymethyl]-2′-deoxyuridine]
- IC50 [1]: 188 µM
- Growth Percent (Breast MSF7): 87%
- Growth Percent (CNS SNB-75): 65%
- Growth Percent (Leukemia RPMI-8226): 90%
- Growth Percent [2]: 89%
- Growth Percent [3]: 91%
- Growth Percent (Renal TK-10): 84%
- Growth Percent (Renal UO-31): 88%

Compound: CC(C)(C)C(OCc1cn([C@H]2C[C@H](O)[C@@H](CO)O2)c(=O)[nH]c1=O)c1ccccc1[N+](=O)[O-] (stereo partly shown) [VAL-1-15/27/42, 5-[1-(2-nitrophenyl)-2,2-(dimethyl)propoxymethyl]-2′-deoxyuridine]
- IC50 [1]: 42 µM
- Growth Percent (CNS SNB-75): 84%
- Growth Percent [2]: 73%
- Growth Percent (Prostate PC-3): 91%
- Growth Percent (Renal CAKI-1): 88%

Compound: CC(C)(C)CC(OCc1cn([C@H]2C[C@H](O)[C@@H](CO)O2)c(=O)[nH]c1=O)c1ccccc1 (stereo partly shown) [VAL-1-16, 5-[1-(phenyl)-3,3-(dimethyl)-1-butoxymethyl]-2′-deoxyuridine]
- Growth Percent (CNS SNB-75): 92%
- Growth Percent (Melanoma UACC-62): 90%
- Growth Percent (Renal A498): 92%

Reference: patent US20160101188A1, “NOVEL NANOCARRIER DELIVERED CANCER CHEMOTHERAPEUTIC AGENTS” (UNIVERSITY OF CINCINNATI, priority 2013, published 2016)
